Test results: ChEMBL document CHEMBL3864167, “Structure-Activity Relationship, Drug Metabolism and Pharmacokinetics Properties Optimization, and in Vivo Studies of New Brain Penetrant Triple T-Type Calcium Channel Blockers” (J Med Chem, 2016)
≈ marks a conversion by molar mass, not a printed value.

Legend:
[1] = system: MDR1; experiment: Efflux ratio for apparent permeability in MDCK1 cells expressing MDR1; assay type: ADME, cell-based, Canis lupus familiaris; settings: dog, MDCK-MDR1
[2] = Tmax in Wistar rat at 100 mg/kg administered through oral gavage by LC-MS-MS analysis; assay type: ADME, organism-based; settings: in vivo
[3] = Ratio of unbound brain concentration in Wistar rat to IC50 for recombinant human CaV 3.1 channel expressed in HEK293 cells; assay type: ADME, cell-based
[4] = biological target: Voltage-dependent T-type calcium channel subunit alpha-1H (Homo sapiens, UniProt O95180); experiment: Channel blocking activity at recombinant human CaV 3.2 channel expressed in HEK293 cells assessed as inhibition of Ca2+ flux preincubated for 3 mins followed by CaCl2 addition by fluo-4 dye-based FLIPR assay; assay type: cell-based
[5] = Unbound plasma concentration in Wistar rat at 100 mg/kg, po after 1 hr by LC-MS/MS analysis; assay type: ADME, organism-based; settings: in vivo
[6] = biological target: Voltage-dependent T-type calcium channel subunit alpha-1G (Homo sapiens, UniProt O43497); experiment: Channel blocking activity at recombinant human CaV 3.1 channel expressed in HEK293 cells assessed as inhibition of Ca2+ flux preincubated for 3 mins followed by CaCl2 addition by fluo-4 dye-based FLIPR assay; assay type: cell-based
[7] = Ratio of unbound brain concentration in Wistar rat to IC50 for recombinant human CaV 3.3 channel expressed in HEK293 cells; assay type: ADME, cell-based
[8] = Drug uptake in Wistar rat brain at 100 mg/kg, po after 1 hr by LC-MS/MS analysis; assay type: ADME, organism-based; settings: read-out: Drug uptake
[9] = Lipophilicity, logD of compund at pH 7.4; assay type: physicochemical; settings: buffer
[10] = Ratio of unbound brain concentration in Wistar rat to IC50 for recombinant human CaV 3.2 channel expressed in HEK293 cells; assay type: ADME, cell-based
[11] = Ratio of drug level in brain to plasma in Wistar rat at 100 mg/kg, po after 1 hr by LC-MS/MS analysis; assay type: ADME, organism-based
[12] = Fraction unbound in Wistar rat plasma at 100 mg/kg, po after 1 hr by LC-MS/MS analysis; assay type: ADME, organism-based
[13] = Fraction unbound in Wistar rat brain at 100 mg/kg, po after 1 hr by LC-MS/MS analysis; assay type: ADME, organism-based
[14] = Intrinsic clearance in human liver microsomes at 1 uM up to 15 mins in presence of NADPH by LC-MS-MS analysis; assay type: ADME; settings: read-out: CLH
[15] = Drug uptake in Wistar rat cerebrospinal fluid at 100 mg/kg, po after 1 hr by LC-MS/MS analysis; assay type: ADME, organism-based; settings: read-out: Drug uptake
[16] = system: MDR1; experiment: Apparent permeability from basolateral side to apical side in MDCK1 cells expressing MDR1; assay type: ADME, cell-based, Canis lupus familiaris; settings: dog, MDCK-MDR1
[17] = Solubility of the compound in fast state simulated intestinal fluid; assay type: ADME; settings: fasted state simulated intestinal fluid (FaSSIF)
[18] = Unbound brain concentration in Wistar rat at 100 mg/kg, po after 1 hr by LC-MS/MS analysis; assay type: ADME, organism-based; settings: in vivo
[19] = AUC in Wistar rat at 100 mg/kg administered through oral gavage up to 24 hrs by LC-MS-MS analysis; assay type: ADME, organism-based; parameters: dose 100 mg/kg, time < 24 hr, route oral; settings: in vivo
[20] = Dissociation constant, pKa of compound; assay type: physicochemical
[21] = Drug uptake in Wistar rat plasma at 100 mg/kg, po after 1 hr by LC-MS/MS analysis; assay type: ADME, organism-based
[22] = biological target: Voltage-dependent T-type calcium channel subunit alpha-1I (Homo sapiens, UniProt Q9P0X4); experiment: Channel blocking activity at recombinant human CaV 3.3 channel expressed in HEK293 cells assessed as inhibition of Ca2+ flux preincubated for 3 mins followed by CaCl2 addition by fluo-4 dye-based FLIPR assay; assay type: cell-based
[23] = Solubility of the compound at pH 7; assay type: physicochemical; settings: buffer
[24] = Cmax in Wistar rat at 100 mg/kg administered through oral gavage up to 24 hrs by LC-MS-MS analysis; assay type: ADME, organism-based; parameters: dose 100 mg/kg, route oral; settings: in vivo
[25] = Ratio of unbound brain concentration to unbound plasma concentration in Wistar rat at 100 mg/kg, po after 1 hr by LC-MS/MS analysis; assay type: ADME, organism-based
[26] = Solubility of the compound in fed state simulated intestinal fluid; assay type: ADME; settings: fed state simulated intestinal fluid (FeSSIF)
[27] = system: MDR1; experiment: Apparent permeability from apical side to basolateral side in MDCK1 cells expressing MDR1; assay type: ADME, cell-based, Canis lupus familiaris; settings: dog, MDCK-MDR1
[28] = Drug level in human liver microsomes treated with (+/-)-1-((3R,5S)-1-benzyl-3,5-dimethyl-2,3-dihydro-1H-benzo[e][1,4]diazepin-4(5H)-yl)-3-methoxypropan-1-one at 10 uM after 30 mins by LC-MS/MS analysis; assay type: ADME; settings: 0.5 h
[29] = Intrinsic clearance in Wistar rat liver microsomes at 1 uM up to 15 mins in presence of NADPH by LC-MS-MS analysis; assay type: ADME; settings: read-out: CLH
[30] = Antiepileptic activity in WAG/Rij rat model of generalized nonconvulsive absence like epilepsy implanted with telemetric transmitter assessed as reduction in number of seizures at 100 mg/kg, po administered as single dose at nocturnal active phase measured after 3 hrs by […] analysis; assay type: functional, organism-based; parameters: scale not given: the % may be the effect or the level left
[31] = Antiepileptic activity in WAG/Rij rat model of generalized nonconvulsive absence like epilepsy implanted with telemetric transmitter assessed as reduction in number of seizures at 100 mg/kg, po administered as single dose at nocturnal active phase measured after 12 hrs by […] analysis relative to control; assay type: functional, organism-based; parameters: scale not given: the % may be the effect or the level left
[32] = Antiepileptic activity in WAG/Rij rat model of generalized nonconvulsive absence like epilepsy implanted with telemetric transmitter assessed as reduction in cumulated duration of seizures at 100 mg/kg, po administered as single dose at nocturnal active phase measured after 12 hrs by […] analysis; assay type: functional, organism-based; parameters: scale not given: the % may be the effect or the level left
[33] = biological target: Cytochrome P450 3A4 (Homo sapiens, UniProt P08684); experiment: Inhibition of CYP3A4 (unknown origin); assay type: ADME
[34] = system: Rattus norvegicus; experiment: Toxicity in WAG/Rij rat model of generalized nonconvulsive absence like epilepsy at 100 mg/kg, po administered as single dose; assay type: organism-based; settings: in vivo
[35] = Drug metabolism in human liver microsomes assessed as (+/-)-1-((3R,5S)-3,5-dimethyl-2,3-dihydro-1H-benzo[e][1,4]diazepin-4(5H)-yl)-3-methoxypropan-1-one metabolite formation at 10 uM after 30 mins by LC-MS/MS analysis; assay type: ADME; settings: 0.5 h

Voltage-dependent T-type calcium channel subunit alpha-1H, sequence (O95180 whole entry): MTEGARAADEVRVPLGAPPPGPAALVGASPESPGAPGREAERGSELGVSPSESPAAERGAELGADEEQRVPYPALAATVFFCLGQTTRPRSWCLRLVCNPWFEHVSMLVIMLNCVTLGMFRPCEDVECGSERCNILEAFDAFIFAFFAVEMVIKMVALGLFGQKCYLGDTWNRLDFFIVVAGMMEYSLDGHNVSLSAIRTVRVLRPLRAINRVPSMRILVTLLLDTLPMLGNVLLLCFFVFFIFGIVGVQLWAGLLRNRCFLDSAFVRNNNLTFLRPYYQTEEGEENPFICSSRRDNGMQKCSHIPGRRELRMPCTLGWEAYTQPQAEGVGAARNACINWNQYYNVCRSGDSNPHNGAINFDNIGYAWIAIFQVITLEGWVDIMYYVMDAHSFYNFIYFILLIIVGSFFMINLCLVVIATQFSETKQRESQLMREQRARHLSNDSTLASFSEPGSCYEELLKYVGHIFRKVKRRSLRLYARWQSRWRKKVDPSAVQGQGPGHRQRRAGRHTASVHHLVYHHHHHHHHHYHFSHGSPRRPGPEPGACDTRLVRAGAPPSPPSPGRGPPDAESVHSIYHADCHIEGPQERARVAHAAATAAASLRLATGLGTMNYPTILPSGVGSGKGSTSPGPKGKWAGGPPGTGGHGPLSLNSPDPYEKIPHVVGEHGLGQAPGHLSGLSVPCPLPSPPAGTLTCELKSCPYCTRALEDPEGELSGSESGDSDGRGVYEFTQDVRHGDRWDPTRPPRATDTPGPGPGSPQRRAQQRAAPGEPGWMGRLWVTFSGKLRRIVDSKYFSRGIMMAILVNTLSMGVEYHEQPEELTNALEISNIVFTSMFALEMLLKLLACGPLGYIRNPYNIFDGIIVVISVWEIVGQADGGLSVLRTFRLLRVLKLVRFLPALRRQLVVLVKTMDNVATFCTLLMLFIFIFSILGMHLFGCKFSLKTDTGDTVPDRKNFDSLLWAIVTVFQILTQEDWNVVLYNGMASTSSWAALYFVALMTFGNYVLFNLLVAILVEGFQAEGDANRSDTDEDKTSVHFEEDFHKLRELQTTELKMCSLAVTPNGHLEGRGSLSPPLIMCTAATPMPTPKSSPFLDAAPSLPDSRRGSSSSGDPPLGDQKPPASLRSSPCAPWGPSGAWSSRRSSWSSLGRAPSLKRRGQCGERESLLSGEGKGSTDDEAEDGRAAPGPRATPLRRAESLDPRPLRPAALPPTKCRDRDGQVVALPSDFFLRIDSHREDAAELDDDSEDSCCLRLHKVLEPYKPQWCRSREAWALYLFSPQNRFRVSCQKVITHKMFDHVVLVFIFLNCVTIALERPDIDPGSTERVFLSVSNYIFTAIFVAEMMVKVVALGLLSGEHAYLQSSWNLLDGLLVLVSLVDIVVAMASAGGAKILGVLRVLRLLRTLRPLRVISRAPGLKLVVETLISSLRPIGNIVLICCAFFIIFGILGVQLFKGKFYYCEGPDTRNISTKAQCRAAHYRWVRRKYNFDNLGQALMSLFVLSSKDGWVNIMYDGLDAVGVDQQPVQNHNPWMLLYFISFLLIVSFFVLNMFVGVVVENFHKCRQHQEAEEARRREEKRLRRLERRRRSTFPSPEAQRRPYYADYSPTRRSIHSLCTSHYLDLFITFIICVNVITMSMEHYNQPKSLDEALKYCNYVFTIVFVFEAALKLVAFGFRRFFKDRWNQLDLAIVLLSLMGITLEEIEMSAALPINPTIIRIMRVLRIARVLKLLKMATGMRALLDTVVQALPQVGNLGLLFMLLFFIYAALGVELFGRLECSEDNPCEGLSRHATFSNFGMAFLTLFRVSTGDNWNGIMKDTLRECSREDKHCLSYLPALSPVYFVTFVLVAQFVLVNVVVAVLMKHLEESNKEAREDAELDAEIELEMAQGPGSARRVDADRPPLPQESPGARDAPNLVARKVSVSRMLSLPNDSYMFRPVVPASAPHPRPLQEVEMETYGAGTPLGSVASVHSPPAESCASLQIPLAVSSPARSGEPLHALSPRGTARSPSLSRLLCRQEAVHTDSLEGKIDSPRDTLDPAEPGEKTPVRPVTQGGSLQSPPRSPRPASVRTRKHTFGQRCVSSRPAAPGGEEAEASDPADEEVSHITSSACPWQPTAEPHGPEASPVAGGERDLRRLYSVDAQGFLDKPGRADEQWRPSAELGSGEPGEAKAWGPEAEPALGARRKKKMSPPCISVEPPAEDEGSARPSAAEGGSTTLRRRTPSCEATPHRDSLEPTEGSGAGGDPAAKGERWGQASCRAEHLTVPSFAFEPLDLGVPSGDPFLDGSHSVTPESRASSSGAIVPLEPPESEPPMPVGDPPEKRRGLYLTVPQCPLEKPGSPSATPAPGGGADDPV
Voltage-dependent T-type calcium channel subunit alpha-1G, sequence (O43497 whole entry): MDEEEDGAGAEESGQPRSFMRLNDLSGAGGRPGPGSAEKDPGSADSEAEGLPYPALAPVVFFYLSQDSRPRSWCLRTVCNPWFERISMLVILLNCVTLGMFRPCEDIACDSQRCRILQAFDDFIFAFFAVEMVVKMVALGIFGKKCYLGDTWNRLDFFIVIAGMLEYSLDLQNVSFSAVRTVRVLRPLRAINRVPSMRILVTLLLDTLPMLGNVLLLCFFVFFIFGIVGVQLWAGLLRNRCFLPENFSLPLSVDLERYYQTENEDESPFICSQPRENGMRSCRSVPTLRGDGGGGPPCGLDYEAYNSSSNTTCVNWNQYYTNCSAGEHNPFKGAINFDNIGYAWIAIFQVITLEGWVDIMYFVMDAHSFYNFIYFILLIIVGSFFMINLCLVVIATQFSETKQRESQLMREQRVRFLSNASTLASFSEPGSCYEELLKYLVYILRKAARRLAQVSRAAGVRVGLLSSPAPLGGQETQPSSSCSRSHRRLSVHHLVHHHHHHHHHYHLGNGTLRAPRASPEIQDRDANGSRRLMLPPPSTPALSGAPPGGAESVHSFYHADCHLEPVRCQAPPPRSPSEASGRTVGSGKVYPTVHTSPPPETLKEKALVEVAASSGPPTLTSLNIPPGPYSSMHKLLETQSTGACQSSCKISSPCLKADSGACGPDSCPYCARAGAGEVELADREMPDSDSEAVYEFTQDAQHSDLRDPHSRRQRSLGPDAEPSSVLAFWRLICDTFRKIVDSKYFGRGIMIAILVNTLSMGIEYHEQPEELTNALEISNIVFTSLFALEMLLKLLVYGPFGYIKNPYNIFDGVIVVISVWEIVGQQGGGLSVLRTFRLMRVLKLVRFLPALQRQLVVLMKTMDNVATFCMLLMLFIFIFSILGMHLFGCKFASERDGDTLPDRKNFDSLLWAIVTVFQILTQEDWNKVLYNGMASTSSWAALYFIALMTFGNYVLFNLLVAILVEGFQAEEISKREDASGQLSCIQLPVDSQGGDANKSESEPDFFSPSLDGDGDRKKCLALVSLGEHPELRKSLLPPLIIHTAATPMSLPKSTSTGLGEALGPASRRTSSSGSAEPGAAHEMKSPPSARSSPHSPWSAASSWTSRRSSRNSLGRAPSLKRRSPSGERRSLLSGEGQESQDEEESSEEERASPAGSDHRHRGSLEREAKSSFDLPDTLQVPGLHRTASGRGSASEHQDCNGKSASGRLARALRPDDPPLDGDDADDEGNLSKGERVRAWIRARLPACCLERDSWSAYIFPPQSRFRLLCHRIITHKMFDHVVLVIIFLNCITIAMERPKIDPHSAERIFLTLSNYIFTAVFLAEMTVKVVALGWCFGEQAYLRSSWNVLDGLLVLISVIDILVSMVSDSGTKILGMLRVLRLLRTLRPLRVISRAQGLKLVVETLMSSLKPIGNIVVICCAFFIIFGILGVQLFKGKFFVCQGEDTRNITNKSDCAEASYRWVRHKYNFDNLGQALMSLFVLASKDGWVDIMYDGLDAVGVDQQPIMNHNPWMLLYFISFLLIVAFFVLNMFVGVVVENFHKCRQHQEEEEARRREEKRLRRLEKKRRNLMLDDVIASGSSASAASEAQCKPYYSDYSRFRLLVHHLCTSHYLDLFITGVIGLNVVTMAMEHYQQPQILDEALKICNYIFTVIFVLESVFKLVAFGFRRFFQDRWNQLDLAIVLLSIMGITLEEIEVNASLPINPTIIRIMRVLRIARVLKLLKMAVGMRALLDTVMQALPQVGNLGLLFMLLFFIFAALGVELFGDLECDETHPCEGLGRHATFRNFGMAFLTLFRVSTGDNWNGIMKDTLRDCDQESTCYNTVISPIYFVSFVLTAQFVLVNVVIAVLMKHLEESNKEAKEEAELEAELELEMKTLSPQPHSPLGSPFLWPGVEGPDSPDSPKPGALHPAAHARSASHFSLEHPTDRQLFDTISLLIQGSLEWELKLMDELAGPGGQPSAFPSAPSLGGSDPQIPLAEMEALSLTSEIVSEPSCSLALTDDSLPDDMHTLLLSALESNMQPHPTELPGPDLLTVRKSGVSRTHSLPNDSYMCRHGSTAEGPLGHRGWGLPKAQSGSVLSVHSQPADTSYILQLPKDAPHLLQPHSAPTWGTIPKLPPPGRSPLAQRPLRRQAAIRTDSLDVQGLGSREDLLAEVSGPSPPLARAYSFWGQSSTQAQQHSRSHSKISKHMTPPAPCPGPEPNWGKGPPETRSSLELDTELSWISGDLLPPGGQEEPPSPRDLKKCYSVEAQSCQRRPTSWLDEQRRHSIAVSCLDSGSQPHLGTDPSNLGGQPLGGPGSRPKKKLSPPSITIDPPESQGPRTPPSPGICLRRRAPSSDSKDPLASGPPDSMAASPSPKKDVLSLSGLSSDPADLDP

Structure (SMILES) | efflux ratio [1] | IC50 [4] [nM] | IC50 [6] [nM] | logD [9] | microsomal CLint at 1 µM [14] [µL/min/mg] | Papp B→A [16] [×10⁻⁶ cm/s] | pKa [20] | IC50 [22] [nM] | solubility [23] [µg/mL] | Papp A→B [27] [×10⁻⁶ cm/s] | microsomal CLint at 1 µM [29] [µL/min/mg] | further results
C[C@@H]1CN(Cc2ccccc2)c2cnccc2[C@H](C)N1C(=O)NCc1ccccc1 (racemic) | 3.4 | 236 | 142 | 3.1 | 276 | 55.8 | 6.2 | 25 | 42 (≈ 105 µM) | 16.6 |  | Tmax [2]: 30 min; Ratio [3]: 0.25; Cp(f) [5]: 128 nM; Ratio [7]: 1.5; concentration at 1 h [8]: 1600 nM; Ratio [10]: 0.15; BPR [11]: 24%; fraction unbound at 1 h [12]: 0.019; fraction unbound at 1 h [13]: 0.022; concentration at 1 h [15]: 494 nM; solubility [17]: 89 µg/mL (≈ 222 µM); Drug uptake(free) [18]: 35 nM; AUC at 24 h [19]: 21800 ng·h/mL; concentration at 1 h [21]: 6780 nM; Cmax [24]: 5440 ng/mL; BPR [25]: 27%; solubility [26]: 318 µg/mL (≈ 794 µM)
COCCC(=O)N1[C@H](C)CNc2ccccc2[C@@H]1C (racemic) |  |  |  |  |  |  |  |  |  |  |  | Drug metabolism [28]: Metabolite_Detected
C[C@@H]1CN(Cc2ccccc2)c2ccccc2[C@H](C)N1C(=O)NCc1ccccc1 (racemic) |  | 35 | 17 | > 4.1 | > 1250 |  |  | 8 | < 1 |  | > 1250 | solubility [17]: 6 µg/mL (≈ 15 µM); solubility [26]: 20 µg/mL (≈ 50.1 µM)
C[C@@H]1CN(Cc2ccccc2)c2cnccc2[C@H](C)N1C(=O)NCc1ccccc1 [listing 1 of 2 here] |  |  |  |  |  |  |  |  |  |  |  | Activity [30]: 100%; Activity [31]: 50%; Activity [32]: 50%
C[C@@H]1CN(Cc2ccccc2)c2cncc(F)c2[C@H](C)N1C(=O)Nc1cccnc1 (racemic) | 60 | 240 | 107 | 3.3 | 83 | 53.8 | 3.8 to 4.7 | 133 | 177 (≈ 437 µM) | 0.9 | 500 | 
C[C@@H]1CN(Cc2ccccc2)c2cnccc2[C@H](C)N1C(=O)NCc1ccccc1 [listing 2 of 2 here] |  | 102 | 138 |  |  |  |  | 11 |  |  |  | IC50 [33]: 23 to 31 nM; Activity [34]: Non-Toxic
C[C@@H]1CN(Cc2ccccc2)c2cncc(F)c2[C@H](C)N1C(=O)NCc1ccccc1 (racemic) | 2.3 | 72 | 140 |  | 185 | 61 | 4.2 | 9 |  | 26.3 |  | 
C[C@@H]1CN(CC2CCCCO2)c2ccccc2[C@H](C)N1C(=O)Nc1cccnc1 (mixture of isomers) |  | 2670 | 875 |  | 720 |  |  | 243 | 248 |  |  | 
CC(C)CCN1C[C@@H](C)N(C(=O)Nc2cccnc2)[C@@H](C)c2ccncc21 (racemic) | 140 | 604 | 613 | 3.2 | 30 | 56 | 4.4 to 6.3 | 251 | 309 (≈ 841 µM) | 0.4 | 496 | 
COCCC(=O)N1[C@H](C)CN(Cc2ccccc2)c2ccccc2[C@@H]1C (racemic) |  |  |  |  | > 1250 |  |  |  | 27 (≈ 76.6 µM) |  | > 1250 | Drug metabolism [35]: Metabolite_Detected; solubility [17]: 58 µg/mL (≈ 165 µM); solubility [26]: 195 µg/mL (≈ 553 µM)
COc1ccc(CNC(=O)N2[C@H](C)CN(CCC(C)C)c3cnccc3[C@@H]2C)cc1 (racemic) | 5.1 | 55 | 76 | 4 | 94 | 54.5 | 6.4 | 25 | 9 (≈ 21.9 µM) | 10.6 | 885 | 
